pKd: −log10 of the molar value.
How the values were obtained:
Format in all cases: binding
BCL6-POZ domain [1] = target: T1, BCL6-POZ domain (Homo sapiens, UniProt P41182, C8Q/C67R/C84N); assay: 1H-15N TROSY-HSQC NMR chemical shift perturbation
T1 construct: POZ domain (residues 7 to 128)

BCL6-POZ domain [2] = target: T2, BCL6-POZ domain (Homo sapiens, UniProt P41182, C67R/C84N/C8Q); assay: X-ray crystal structure ([…] Å); 1H-15N TROSY-HSQC NMR titration
T2 construct: POZ domain (residues 7 to 128)

BCL6-POZ domain [3] = target: T1, BCL6-POZ domain; assay: 1H-15N TROSY-HSQC NMR chemical shift perturbation (weakest of the series)
BCL6-POZ domain [4] = target: T1, BCL6-POZ domain; assay: 1H-15N TROSY-HSQC NMR chemical shift perturbation; also relieves BCL6 repression in HEK293T luciferase reporter assay

CO[C@H]1/C=C/O[C@@]2(C)Oc3c(C)c(O)c4c(O)c(c(/C=N/N5CCN(C6CCCC6)CC5)c(O)c4c3C2=O)NC(=O)/C(C)=C\C=C\[C@H](C)[C@H](O)[C@@H](C)[C@@H](O)[C@@H](C)[C@H](OC(C)=O)[C@@H]1C [rifapentine]
1H-15N TROSY-HSQC NMR chemical shift perturbation (BCL6-POZ domain [1]): order of binding from weakest to strongest was: rifaximin, rifapentine, 3-formyl rifamycin, rifampicin, rifamycin SV and rifabutin

CO[C@H]1/C=C/O[C@@]2(C)Oc3c(C)c(O)c4c(c3C2=O)C2=NC3(CCN(CC(C)C)CC3)NC2=C(NC(=O)/C(C)=C\C=C\[C@H](C)[C@H](O)[C@@H](C)[C@@H](O)[C@@H](C)[C@H](OC(C)=O)[C@@H]1C)C4=O [rifabutin]
pKd (BCL6-POZ domain [2]): ~3.00

CO[C@H]1/C=C/O[C@@]2(C)Oc3c(C)c(O)c4c(O)c(c5c(nc6cc(C)ccn65)c4c3C2=O)NC(=O)/C(C)=C\C=C\[C@H](C)[C@H](O)[C@@H](C)[C@@H](O)[C@@H](C)[C@H](OC(C)=O)[C@@H]1C [rifaximin]
1H-15N TROSY-HSQC NMR chemical shift perturbation (weakest of the series) (BCL6-POZ domain [3]): order of binding from weakest to strongest was: rifaximin, rifapentine, 3-formyl rifamycin, rifampicin, rifamycin SV and rifabutin

CO[C@H]1/C=C/O[C@@]2(C)Oc3c(C)c(O)c4c(O)c(cc(O)c4c3C2=O)NC(=O)/C(C)=C\C=C\[C@H](C)[C@H](O)[C@@H](C)[C@@H](O)[C@@H](C)[C@H](OC(C)=O)[C@@H]1C [rifamycin SV]
1H-15N TROSY-HSQC NMR chemical shift perturbation; also relieves BCL6 repression (BCL6-POZ domain [4]): resulted in a subset of peaks shifting in a concentration dependent manner

CO[C@H]1/C=C/O[C@@]2(C)Oc3c(C)c(O)c4c(O)c(c(/C=N/N5CCN(C)CC5)c(O)c4c3C2=O)NC(=O)/C(C)=C\C=C\[C@H](C)[C@H](O)[C@@H](C)[C@@H](O)[C@@H](C)[C@H](OC(C)=O)[C@@H]1C [rifampicin]
1H-15N TROSY-HSQC NMR chemical shift perturbation (BCL6-POZ domain [1]): These derivatives all caused spectral changes of varying magnitude with the greatest shifts caused by rifabutin
